For assay [1], the target named is T1, FXYD2-gamma-a regulatory subunit expressed by CAPAN-2 cells (Homo sapiens, UniProt P54710).
T1 construct: the FXYD2-gamma-a regulatory subunit expressed by CAPAN-2 cells; endogenous in cells; host or cells: CAPAN-2 cells (PANC1 cells as comparison)
Description: Immunocytochemistry on CAPAN2 and PANC1 cells. The settings on record: CAPAN2 cells versus PANC1 cells. The format is cell-based. The procedure:
(§1) The specificity of P88, P89, P90 and a polyclonal antibody against the N-terminal sequence of FXYD2-gamma-a protein to the FXYD2-gamma-a regulatory subunit expressed by CAPAN-2 cells was checked by immunocytochemistry and immunofluorescence tests.
Immunocytochemistry tests were performed using the biotinylated peptides. An anti-biotine antibody was used and was recognized by a secondary antibody coupled to the peroxidase. The polyclonal antibody against the N-terminal sequence of FXYD2-gamma-a protein to the FXYD2-gamma-a was detected using a secondary biotinylated antibody that fixes a complex containing streptavidin, biotin and peroxidase. The latter gives a brown color in the presence of 3,3′-diaminobenzidine (DAB).

For assay [2], the target named is T1, FXYD2-gamma-a regulatory subunit expressed by CAPAN-2 cells. Description: Immunofluorescence on CAPAN2 and PANC1 cells with ImageJ semi-quantitative analysis (RRFL). The format is cell-based.
Excerpt: as §1
Each secondary antibody described above was coupled to a fluorophore such as fluorescein which gives a green color at a certain wavelength. DAPI (4′,6-diamidino-2-phenylindole) was also used in order to stain the cell nuclei in blue. This allowed us to compare the localization of the blue and the green coloration. […] Therefore, P88 interacts specifically with CAPAN2 cells and is thus specific to the FXYD2-gamma-a biomarker.
The images obtained by immunofluorescence test were analyzed using ImageJ software in order to semi-quantitatively evaluate the fluorescent labeling. The following equation was used to calculate the relative rate of fluorescent labeling (RRFL): RRFL=(SIsample/Ncells)/(SIblanc/Ncells) Wherein SI is the signal intensity, N is the number of cells and blanc is the negative control sample.
The percentage of RRFL obtained when P88 was used at two different concentrations (5 μM and 10 μM) was determined compared to the RRFL obtained when the polyclonal antibody against the N-terminal sequence of FXYD2-gamma-a was used (FIG. 3 B). The ratio between the RRFL measured in CAPAN2 cells and the RRFL measured in PANC1 cells was also determined (FIG. 3 C). […] The ratio CAPAN2/PANC1 confirmed the labeling specificity of P88 compared to the used polyclonal antibody.

For assay [3], the system named is human pancreatic beta cells. Kind of assay: Immunofluorescence co-localization on human pancreatic histological sections. The format is cell-based. How it is done: (§2) A co-localization of peptide P88, insulin and glucagon was performed on human pancreatic histological sections using immunohistochemistry and immunofluorescence tests. Insulin is a hormone produced by the beta cells of Langerhans islets while glucagon is produced by the alpha cells of the same islets.
Immunofluorescence tests were performed on human pancreatic histological sections such as P88 was detected together with insulin or glucagon. In another test, insulin was detected together with the polyclonal antibody against the N-terminal sequence of FXYD2-gamma-a. Insulin (specific of beta cells) was detected with a primary anti-insulin antibody which was detected using a secondary antibody coupled to Texas Red. Glucagon was detected with a primary anti-glucagon antibody which was also detected using a secondary antibody coupled to Texas Red. The latter gives red color to the antigenic sites. Biotinylated P88 was detected using a primary antibody anti-biotin and a secondary antibody coupled to fluorescein. The polyclonal antibody against the N-terminal sequence of FXYD2-gamma-a was also detected using a secondary antibody coupled to fluorescein. Antigenic sites marked by fluorescein are visualized in green color. DAPI was also used in order to stain the cells nuclei in blue. Pictures obtained with each staining (red, green and blue) were superimposed.

Another assay addresses FXYD2-gamma-a subunit (Homo sapiens, UniProt P54710). Description: Dissociation constant (Kd) determination of phage display clone and synthetized peptides. As to conditions: binding to FXYD2-gamma-a subunit. An excerpt: Commercially available peptide libraries were screened and peptides binding the FXYD2-gamma-a subunit were retained for further analysis. The FXYD2-gamma-a is a regulating subunit of the Na—K-ATPase that contains 66 amino acids, from which 11 are specific to human beta-cells (Flamez D et al. DOI 10.1007/s00125-010-1714-z). Commercially available linear heptapeptide libraries were screened via M 13 phage display methodology. After 4 screening rounds, 42 clones were selected for further characterization: sequencing and dissociation constant (Kd) determination. […] The latter were synthetized either separately (called P89 and P90) or fused via a short sequence of the pill protein (called P88). All three synthetized peptides were further tested. […]

For assay [4], the system named is human pancreatic Langerhans islets. Description: Immunohistochemistry on human pancreatic histological sections. The format is cell-based. The procedure:
as §2
The marking is the same as the one obtained when the antibody anti-insulin was used (FIG. 4).
In other immunohistochemistry tests, the anti-FXYD2-gamma-a polyclonal antibody was used. […] Therefore, P88 is highly specific to the pancreatic beta cells FXYD2-gamma-a biomarker.

For assay [5], the system named is CAPAN2 cells. Kind of assay: MRI of CAPAN2 cells labeled with contrast agents. As to conditions: for MRI labeling of CAPAN2 cells: 2×10^6 to 0.1×10^6 cells per 100 μl; for transverse relaxation rates of labeled CAPAN2 cells compared to USPIO-PEG: independent from the concentration of CAPAN2 cells. The format is cell-based, human. The procedure:
(§3) CAPAN2 cells were labeled with USPIO nanoparticles coupled to P88 or with carboxy silane coated iron oxide nanoparticles coupled to P88. USPIO-polyethylene glycol (PEG) were used as negative contrast agent. Labeled cells were visualized by MRI and the concentration of contrast agents bound to the cells was determined by iron dosage.
CAPAN2 cells were used with different concentrations ranging from 2×10^6 cell per 100 μl to 0.1×10^6 cells per 100 μl corresponding respectively to the beta cell concentration in healthy pancreas and in a pancreas with diabetes. […] The labeling was also clearly observed with the lowest CAPAN2 cell concentration.

Assay [6] deals with CAPAN2 cells. Description: Iron dosage of CAPAN2 cells labeled with contrast agents. The format is cell-based, human. The settings on record: contrast agent 1 mM, 2 mM and 3 mM. How it is done:
as §3
This confirms the specificity of P88 to the pancreatic beta cells biomarker FXYD2-gamma-a and the efficacy of using the P88 coupled to a contrast agent in MRI.

Assay [7] concerns beta cells of Langerhans islets. Kind of assay: Co-localization of contrast agent labeled Langerhans islets with insulin (anti-PEG antibody). The format is cell-based, human. The settings on record: fluorescein, insulin Texas red. The procedure: Co-localization tests were performed where antibodies anti-PEG were added to the Langrehans islets labeled with USPIO-P88 nanoparticles, the Langrehans islets labeled with carboxy silane coated iron oxide nanoparticles coupled to the peptide P88 and to the Langrehans islets labeled with USPIO-PEG. A secondary antibody that recognizes the anti-PEG antibody and coupled to the fluorescein was also used which created a green fluorescence.
Insulin was labeled with primary anti-insulin antibody and a secondary antibody coupled to Texas red which created a red fluorescence.

Another assay has as its system human Langerhans islets. Description: MRI of human Langerhans islets labeled with contrast agents. The format is cell-based. As to conditions: for transverse relaxation rates of labeled human Langerhans islets compared to USPIO-PEG: independent from concentration and purity of islets. How it is done: Contrast agents USPIO and carboxy silane coated iron oxide nanoparticles coupled to the peptide P88 were tested for their interaction with the human Langerhans islets and compared to the use of USPIO-PEG contrast agent.

Assay [8] has as its target FXYD2-gamma-a subunit (target of the phage display screening and Kd determination) (human) (UniProt P54710). Kind of assay: synthetic peptide; method not stated.
Assay [9] shares this target. Kind of assay: phage clone characterisation after M13 phage display screening; method not stated.
Assay [10] has as its target FXYD2-gamma-a regulatory subunit expressed by CAPAN-2 cells and human pancreatic beta cells (human) (UniProt P54710). Description: immunofluorescence on CAPAN2 cells, ImageJ semi-quantitative analysis, P88 at 5 µM.
Assay [11] shares this target. Kind of assay: immunofluorescence on CAPAN2 cells, ImageJ semi-quantitative analysis, P88 at 10 µM.

Where no end group is shown, it is not given here.

T1 sequence (P54710 whole entry): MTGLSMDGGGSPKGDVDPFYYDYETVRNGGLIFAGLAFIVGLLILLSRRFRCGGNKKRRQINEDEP
FXYD2-gamma-a subunit, sequence (P54710 whole entry, the tested form may be a part): as the sequence (P54710 whole entry) above
FXYD2-gamma-a subunit (target of the phage display screening and Kd determination) (human), sequence (P54710 whole entry): as above
FXYD2-gamma-a regulatory subunit expressed by CAPAN-2 cells and human pancreatic beta cells (human), sequence (P54710 whole entry): as above

In the case of LPLSRHY [P89, LPLSRHY], in assay [1], the “specificity of interaction (brown DAB coloration)” value (shortened to “specificity of interaction”) is on record as “less specific compared to P88”.

For LPLSRHYGGGSVPFYSHSNTHHTSM [P88], the “RRFL higher than the RRFL produced by the anti-FXYD2-gamma-a polyclonal antibody” value in [2] (CAPAN2 cells, 5 μM) was found to be 791%. Moreover, the “RRFL higher than the RRFL produced by the anti-FXYD2-gamma-a polyclonal antibody” value in assay [2] (CAPAN2 cells, 10 μM) came out at 945%. Moreover, in [2] (CAPAN2 cells, DAPI nuclear stain), the “green fluorescence pattern in CAPAN 2 cells” value is on record as “correspondent to the blue fluorescent pattern of DAPI”. Besides, the “green fluorescence in PANC1 cells” value in [2] (PANC1 cells) is recorded as “few green fluorescent spots”. In [3], the “co-localization with glucagon (anti-glucagon antibody)” value was “did not co-localize” and the “co-localization with insulin (anti-insulin antibody)” value is on record as “perfect co-localization”. Further, the “specificity of interaction” value in assay [1] is recorded as “more localized in the CAPAN2 cells”. Besides, the dissociation constant Kd on FXYD2-gamma-a subunit was found to be 1890 nM. In addition, the “marking of pancreatic Langerhans islets” value in assay [4] is reported as “high specific marking”.

Turning to NTHHTSM [P90], the “specificity of interaction” value in assay [1] is reported as “less specific compared to P88”. The “dissociation constant (Kd)” value at FXYD2-gamma-a subunit was “could not be determined”.

Regarding “USPIO-P88: USPIO nanoparticles coupled to P88, MRI contrast agent (LPLSRHYGGGSVPFYSHSNTHHTSM; also: coupled to USPIO nanoparticles, site not given here)”, in the assay with CAPAN2 cells [5], the “MRI labeling of CAPAN2 cells” value is on record as “clear labeling” and the “transverse relaxation rates of labeled CAPAN2 cells compared to USPIO-PEG” value is reported as “higher”. In addition, in the assay with CAPAN2 cells [6], the “amount of iron captured by the CAPAN2 cells compared to USPIO-PEG” value is reported as “always higher”. Moreover, the “co-localization of labeled Langerhans islets with the red fluorescence of insulin” value in assay [7] was “perfectly co-localized”. Also, the “MRI labeling of human Langerhans islets compared to USPIO-PEG” value in the assay with human Langerhans islets (also at low concentration and in non-pure islet samples) is “clear difference”. Further, the “transverse relaxation rates of labeled human Langerhans islets compared to USPIO-PEG” value with human Langerhans islets is on record as “higher”.

In the case of “silane coated iron oxide nanoparticles-P88: carboxy silane coated iron oxide nanoparticles coupled to P88 (LPLSRHYGGGSVPFYSHSNTHHTSM; also: coupled to carboxy silane coated iron oxide nanoparticles, site not given here)”, in the assay with CAPAN2 cells [5], the “MRI labeling of CAPAN2 cells” value was “clear labeling” and the “transverse relaxation rates of labeled CAPAN2 cells compared to USPIO-PEG” value is “higher”. Moreover, in the assay with CAPAN2 cells [6], the “amount of iron captured by the CAPAN2 cells compared to USPIO-PEG” value is recorded as “always higher”. In addition, the “co-localization of labeled Langerhans islets with the red fluorescence of insulin” value in assay [7] was “perfectly co-localized”. In addition, the “transverse relaxation rates of labeled human Langerhans islets compared to USPIO-PEG” value in the assay on human Langerhans islets was “higher”.

B1: P89 (peptide)
peptide: LPLSRHY
modifications: also: biotinylated in ICC tests, site not given here
Consider B1, for which, in assay [8], the Kd turned out to be 109000 nM.

B2: selected M13 phage clone carrying 2 peptides (peptide)
peptide 1: LPLSRHY
peptide 2: NTHHTSM
The molecule B2 returned a Kd in assay [9] of 9.3 nM.

B3: P88 (peptide)
peptide: LPLSRHYGGGSVPFYSHSNTHHTSM
modifications: also: biotinylated in ICC/IHC/IF tests, site not given here
On to B3, for which the relative rate of fluorescent labeling (RRFL) in CAPAN2 cells against the anti-FXYD2-gamma-a polyclonal antibody in [10] came to 791 % higher; in [11] it was 945 % higher.

What is called Kd is the concentration at which binding is half-saturated.

For the origin of these results see patent publication US8981053B2, “Molecules specifically binding pancreatic beta cells biomarkers” (Universite de Mons, priority 2011, dated 2015).
